Test results: ChEMBL document CHEMBL1134339, “New 1-aryl-3-(4-arylpiperazin-1-yl)propane derivatives, with dual action at 5-HT1A serotonin receptors and serotonin transporter, as a new class of antidepressants” (J Med Chem, 2001)

How the values were obtained:
Mus musculus [1] = assay: Effect on immobility time in the forced swimming test (FST) in mice at 0.1 mg/kg dose; assay type: functional
[2] = molecular target: T1, Adrenergic receptor alpha-2 (Rattus norvegicus, UniProt P22086+P19328+P22909); assay: Affinity towards alpha-2 adrenergic receptor (For clonidine Ki(nM)= […]+/-[…]); assay type: protein assay
T1 sequence (P22086 whole entry): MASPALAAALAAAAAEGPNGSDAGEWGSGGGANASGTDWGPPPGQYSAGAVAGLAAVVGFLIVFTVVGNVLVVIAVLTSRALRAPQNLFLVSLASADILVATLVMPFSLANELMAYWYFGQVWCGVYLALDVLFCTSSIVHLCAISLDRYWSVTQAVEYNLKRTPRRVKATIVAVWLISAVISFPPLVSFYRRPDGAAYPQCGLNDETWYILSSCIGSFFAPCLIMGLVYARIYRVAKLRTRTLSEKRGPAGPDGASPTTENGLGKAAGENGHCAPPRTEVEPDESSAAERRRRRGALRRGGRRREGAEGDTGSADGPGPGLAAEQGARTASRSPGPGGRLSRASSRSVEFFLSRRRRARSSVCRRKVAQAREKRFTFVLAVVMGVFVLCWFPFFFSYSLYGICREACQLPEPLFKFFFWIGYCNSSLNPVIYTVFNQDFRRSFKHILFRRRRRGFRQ
T1 sequence (P19328 whole entry): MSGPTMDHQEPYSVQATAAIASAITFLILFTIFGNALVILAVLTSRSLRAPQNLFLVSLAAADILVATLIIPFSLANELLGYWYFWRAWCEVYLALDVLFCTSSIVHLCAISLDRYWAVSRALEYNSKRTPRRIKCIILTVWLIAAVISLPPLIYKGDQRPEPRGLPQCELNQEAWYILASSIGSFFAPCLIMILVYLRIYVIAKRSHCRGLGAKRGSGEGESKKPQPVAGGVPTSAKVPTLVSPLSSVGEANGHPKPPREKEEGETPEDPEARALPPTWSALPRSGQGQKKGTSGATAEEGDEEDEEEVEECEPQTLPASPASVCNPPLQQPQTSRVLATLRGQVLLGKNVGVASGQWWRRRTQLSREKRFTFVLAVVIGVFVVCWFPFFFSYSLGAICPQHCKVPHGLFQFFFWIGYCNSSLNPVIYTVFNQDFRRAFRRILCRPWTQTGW
T1 sequence (P22909 whole entry): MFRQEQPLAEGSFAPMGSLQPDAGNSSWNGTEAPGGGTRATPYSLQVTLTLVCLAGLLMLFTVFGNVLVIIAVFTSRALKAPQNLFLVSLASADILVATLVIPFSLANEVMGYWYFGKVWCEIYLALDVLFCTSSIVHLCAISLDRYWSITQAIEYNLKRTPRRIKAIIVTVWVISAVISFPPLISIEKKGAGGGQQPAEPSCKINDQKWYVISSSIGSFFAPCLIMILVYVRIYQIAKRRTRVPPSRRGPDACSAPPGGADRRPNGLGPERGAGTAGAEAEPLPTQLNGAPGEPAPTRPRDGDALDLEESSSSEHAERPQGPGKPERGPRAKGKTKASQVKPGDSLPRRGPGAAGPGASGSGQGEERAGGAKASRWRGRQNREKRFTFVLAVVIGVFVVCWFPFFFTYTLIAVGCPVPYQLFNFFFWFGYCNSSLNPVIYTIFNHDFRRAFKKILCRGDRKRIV

Mus musculus [3] = assay: Effect on immobility time in the forced swimming test (FST) in mice at 0 mg/kg dose; assay type: functional
[4] = molecular target: Sodium-dependent serotonin transporter (Rattus norvegicus, UniProt P31652); assay: Binding affinity towards Serotonin transporter from rat cortex measured using [3H]paroxetine; conditions: read-out: Ki
Chain of Sodium-dependent serotonin transporter (P31652 whole entry): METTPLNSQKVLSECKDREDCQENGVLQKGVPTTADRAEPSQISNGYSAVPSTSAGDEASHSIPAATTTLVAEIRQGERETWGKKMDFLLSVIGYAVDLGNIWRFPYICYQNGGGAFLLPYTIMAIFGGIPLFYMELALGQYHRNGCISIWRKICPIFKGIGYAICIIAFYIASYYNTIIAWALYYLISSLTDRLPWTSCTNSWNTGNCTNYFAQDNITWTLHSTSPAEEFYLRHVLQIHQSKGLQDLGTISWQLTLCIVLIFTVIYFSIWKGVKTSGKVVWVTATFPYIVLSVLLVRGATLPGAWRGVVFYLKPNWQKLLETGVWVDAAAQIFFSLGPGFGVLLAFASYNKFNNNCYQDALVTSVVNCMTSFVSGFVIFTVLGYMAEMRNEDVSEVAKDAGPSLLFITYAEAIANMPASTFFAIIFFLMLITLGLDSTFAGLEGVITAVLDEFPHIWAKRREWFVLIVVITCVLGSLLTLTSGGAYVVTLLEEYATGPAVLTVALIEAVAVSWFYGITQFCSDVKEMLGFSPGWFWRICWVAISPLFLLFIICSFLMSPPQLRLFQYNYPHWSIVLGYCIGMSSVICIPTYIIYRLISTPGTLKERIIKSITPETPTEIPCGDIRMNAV

Mus musculus [5] = assay: Time-dependent effect on 8-OH-DPAT-induced hypothermia (change in body temperature) after 60 min, in mice at 0.5 mg/kg dose; assay type: functional
Mus musculus [6] = assay: Time-dependent effect on 8-OH-DPAT-induced hypothermia (change in body temperature) after 60 min, in mice at 0.1 mg/kg dose; assay type: functional
Rattus norvegicus = assay: Effect on helpless behavior in rats and the number of escape failures was determined in shuttle-box session-3 (SB-3) at 1 mg/kg dose; assay type: functional
Mus musculus [7] = assay: Time-dependent effect on 8-OH-DPAT-induced hypothermia (change in body temperature) after 30 min, in mice at 5 mg/kg dose; assay type: functional
Mus musculus [8] = assay: Time-dependent effect on 8-OH-DPAT-induced hypothermia (change in body temperature) after 15 min, in mice at 5 mg/kg dose; assay type: functional
Mus musculus [9] = assay: Effect on immobility time in the forced swimming test (FST) in mice at 1 mg/kg dose; assay type: functional
[10] = molecular target: T2, 5-hydroxytryptamine receptor 3A (Rattus norvegicus, UniProt P35563); assay: Affinity at 5-hydroxytryptamine 3 receptor from rat frontal cortex using [3H]granisetron as radioligand (For granisetron = Ki(nM)=0.3+/-0.01); assay type: tissue-based
T2 sequence (P35563 whole entry): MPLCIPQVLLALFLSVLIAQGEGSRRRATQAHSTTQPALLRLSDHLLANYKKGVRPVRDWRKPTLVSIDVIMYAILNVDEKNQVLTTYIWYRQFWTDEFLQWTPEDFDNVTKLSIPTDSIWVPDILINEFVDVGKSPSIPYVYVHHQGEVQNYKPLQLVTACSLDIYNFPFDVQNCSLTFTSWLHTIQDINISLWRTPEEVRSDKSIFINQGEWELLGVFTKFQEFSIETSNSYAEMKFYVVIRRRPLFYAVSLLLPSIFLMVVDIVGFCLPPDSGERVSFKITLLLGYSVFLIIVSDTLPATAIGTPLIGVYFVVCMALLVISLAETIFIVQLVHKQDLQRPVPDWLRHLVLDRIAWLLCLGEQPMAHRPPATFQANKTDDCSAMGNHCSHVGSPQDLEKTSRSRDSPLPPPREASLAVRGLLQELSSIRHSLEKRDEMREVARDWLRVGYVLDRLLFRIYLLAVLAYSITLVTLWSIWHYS

Mus musculus [11] = assay: Antidepressant-like activity in the forced swimming test (FST) in mice at 1 mg/kg dose; Antidepressant like activity; assay type: functional
Mus musculus [12] = assay: Antidepressant-like activity in the forced swimming test (FST) in mice at 0.1 mg/kg dose; Antidepressant like activity; assay type: functional
D(2) dopamine receptor = D(2) dopamine receptor (Rattus norvegicus, UniProt P61169); assay: Affinity at dopamine D2 receptor from rat striatum using [3H]spiroperidol as radioligand (For haloperidol Ki(nM)= 1.5+/-1.2); assay type: tissue-based
Chain of D(2) dopamine receptor (P61169 whole entry): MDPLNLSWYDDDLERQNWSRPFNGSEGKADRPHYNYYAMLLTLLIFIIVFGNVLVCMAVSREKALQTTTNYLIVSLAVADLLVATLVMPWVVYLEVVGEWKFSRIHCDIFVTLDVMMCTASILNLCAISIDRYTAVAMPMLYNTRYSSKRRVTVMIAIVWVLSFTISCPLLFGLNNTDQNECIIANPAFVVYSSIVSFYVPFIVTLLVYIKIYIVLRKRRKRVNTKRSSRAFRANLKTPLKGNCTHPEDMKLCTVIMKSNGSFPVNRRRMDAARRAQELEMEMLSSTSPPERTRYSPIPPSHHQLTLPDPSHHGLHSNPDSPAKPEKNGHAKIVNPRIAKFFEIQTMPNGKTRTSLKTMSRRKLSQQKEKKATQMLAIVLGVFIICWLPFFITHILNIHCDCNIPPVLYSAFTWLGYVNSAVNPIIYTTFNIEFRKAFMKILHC

Mus musculus [13] = assay: Antidepressant-like activity in the forced swimming test (FST) in mice at 10 mg/kg dose; Antidepressant like activity; assay type: functional
[14] = molecular target: T1, Adrenergic receptor alpha-2; assay: Affinity towards alpha-2 adrenoceptor from rat cortex using [3H]-clonidine as radioligand (For clonidine Ki(nM)= […]+/-[…])
[15] = molecular target: 5-hydroxytryptamine receptor 2A (Rattus norvegicus, UniProt P14842); assay: Affinity at 5-hydroxytryptamine 2 receptor from rat frontal cortex using [3H]ketanserin as radioligand (For ketanserin = Ki(nM)=0.7+/-0.09); assay type: tissue-based
Chain of 5-hydroxytryptamine receptor 2A (P14842 whole entry): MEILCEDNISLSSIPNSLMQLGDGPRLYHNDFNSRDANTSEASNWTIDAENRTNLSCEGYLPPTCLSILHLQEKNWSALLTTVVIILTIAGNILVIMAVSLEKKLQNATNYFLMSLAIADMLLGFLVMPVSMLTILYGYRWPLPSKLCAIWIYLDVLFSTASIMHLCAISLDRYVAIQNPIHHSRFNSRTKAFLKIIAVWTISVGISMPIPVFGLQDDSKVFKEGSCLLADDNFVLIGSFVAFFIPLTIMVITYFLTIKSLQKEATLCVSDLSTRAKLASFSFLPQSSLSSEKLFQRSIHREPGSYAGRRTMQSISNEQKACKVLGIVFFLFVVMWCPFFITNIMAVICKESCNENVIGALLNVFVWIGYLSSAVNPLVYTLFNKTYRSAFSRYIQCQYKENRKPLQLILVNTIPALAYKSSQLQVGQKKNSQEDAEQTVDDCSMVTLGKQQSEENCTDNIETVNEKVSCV

Adrenergic receptor beta = Adrenergic receptor beta (Rattus norvegicus, UniProt P18090+P10608+P26255)
[16] = molecular target: Muscarinic acetylcholine receptor; assay: Affinity at muscarinic receptor from rat cortex using [3H]-QNB as radioligand (For atropine Ki(nM)= 3.5+/-0.3)

Compound | Immobility time (Mus musculus [1]) | Ki [2] | Immobility time (Mus musculus [3]) | Ki [4] | Temperature change (Mus musculus [5]) | Temperature change (Mus musculus [6]) | No. of escape failures (Rattus norvegicus) | Temperature change (Mus musculus [7]) | Temperature change (Mus musculus [8]) | Immobility time (Mus musculus [9]) | Ki [10] | Activity (Mus musculus [11]) | Activity (Mus musculus [12]) | Ki (D(2) dopamine receptor) | Activity (Mus musculus [13]) | Ki [14] | Ki [15] | Ki (Adrenergic receptor beta) | Ki [16]
COc1ccccc1N1CCN(CCC(=O)c2csc3ccccc23)CC1 | 141.4 s | 280 nM | 169.4 s | 105 nM | <-0.47 °C | -1.13 °C | <2.8 | <-1.47 °C | -2.53 °C | <77.1 s | – | – | – | – | – | – | – | – | –
COc1ccccc1N1CCN(CCC(Oc2cccc3ccccc23)c2ccsc2)CC1 (centres undefined) | 194.4 s | – | 157.1 s | 150 nM | -0.52 °C | -1.16 °C | 0.5 | – | -2.73 °C | <91.6 s | > 5000 nM | 48% | 0% | 2500 nM | 49% | 5000 nM | > 5000 nM | > 5000 nM | > 5000 nM
COc1ccccc1N1CCN(CCC(O)c2csc3ccccc23)CC1 (centres undefined) | <99.5 s | – | 145 s | 20 nM | -0.63 °C | -0.4 °C | – | -2.5 °C | -2.2 °C | 101.8 s | > 5000 nM | 33% | 35% | 150 nM | 1% | 2000 nM | 250 nM | 750 nM | > 5000 nM
